Experimental data: patent US11806393B2, “Flavivirus peptide sequences, epitopes, and methods and uses thereof” (priority 2017, dated 2023)

Assays:
Type in all cases: cell-based, mouse
[1] = system: CD8+ T cells; test: ICS, DENV2-immune Ifnar-/- HLA-B*0702 mice challenged with ZIKV FSS13025; conditions: day 3 after ZIKV FSS13025 challenge
Procedure: (§1) Two ZIKV strains, MR766 (Uganda, 1947) and FSS13025 (Cambodia, 2010), were obtained from the World Reference Center for Emerging Viruses and Arboviruses (WRCEVA). The mouse-adapted DENV2 strain S221 is a triple-plaque purified clone derived from DENV2 D2S1038. Both ZIKV and DENV2 were amplified in C6/36 mosquito cells, and viral titers were measured using baby hamster kidney (BHK)-21 cell-based focus forming assay (FFA). For epitope screening, 5-week old mice (female or male) were infected retro-orbitally (R.O.) with either 1×102 FFU of ZIKV FSS13025 or ZIKV MR766, or 2×10^4 FFU of DENV2 S221 in 200 μl 10% FBS/PBS. Seven days after infection, CD8^+ T cells were isolated from splenocytes and used for ELISPOT assay, while the splenocytes were directly used for ICS assay. Additionally, 5-week old mice were inoculated I.P. with 2×10^3 FFU of DENV2 S221 for 4 weeks.
Spleens were harvested from virus-infected, mock-immunized, or peptide-immunized mice. 1×10^6 splenocytes were plated in each well of 96-well U-bottom plates and stimulated with individual peptide (10 μg crude peptide or 1 μg pure peptide per well) for 6 hours. Five hours before the end of incubation, Brefeldin A (GolgiPlug; BD Biosciences) and PE-conjugated anti CD107a mAb (clone 1D4B, eBioscience) were added to the cells. Splenocytes stimulated with PMA-ionomycin were used as the positive control, while cells without any stimulation were the negative control. After incubation, cells were first stained with PERCPCY™ 5.5-conjugated anti-CD3 mAb (Clone 145-2C11, TONBO), PE-CY7™-conjugated anti-CD8 mAb (clone 53-67, BD Biosciences), EFLUOR™ 450-conjugated anti-CD44 mAb (clone IM7, eBioscience), and APC eFluor 780-conjugated anti-CD62L mAb (clone Mel-14, eBioscience). Cells were then fixed and permeabilized using CYTOFIX/CYTOPERM™ solution (BD Biosciences), followed by staining with FITC-conjugated anti-IFNγ mAb (clone XMG 1.2, TONBO) and APC-conjugated anti-TNFα mAb (clone MP6-XT22, eBioscience). Samples were run using an LSR™ II (BD Biosciences) and analyzed using FLOWJO™ software X 10.0.7 (Tree Star, Ashland, Oreg.).
The following results are with respect to FIG. 11 to FIG. 11E, where Ifnar^−/− HLA-B*0702 transgenic mice were inoculated I.P. with 2×10^3 FFU of DENV2 strain S221 for 4 weeks. Naive mice (n=5) and DENV2 strain S221-immune mice (n=5) were challenged R.O. with 1×10^4 FU of ZIKV FSS13025 for three days, and the percentages of peptide-specific IFNγ^+ and/or TNFα^+ CD8^+ T cells were detected by ICS (FIG. 11A and FIG. 11B). […] Data were expressed as mean±SEM. *, P<0.05; **, P<0.01; Two-tailed ann-Whitney test. Black “*” indicates ZIKV-specific response while bold “*” represents ZIKV/DENV cross-reactive response. All positive peptides were grouped according the ZIKV specificity of immune response (FIG. 11E). Numbers in parentheses indicate the number of positive peptides in this group.

[2] = system: CD8+ T cells; test: IFNγ ELISPOT, ZIKV-infected Ifnar-/- HLA-B*0702 transgenic mice; conditions: HLA-B*0702 mice; for SFC/10^6 CD8+ T cells, FSS13025: 7 days after 1×10^2 FFU ZIKV FSS13025; for SFC/10^6 CD8+ T cells, MR766: 7 days after 1×10^2 FFU ZIKV MR766; for immunodominance in IFNγ ELISPOT: immunodominant: >500 SFCs/10^6 CD8+ T cells, shared by both ZIKV strains
In short: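 Mice were infected retro-orbitally with 1×10^2 FFU ZIKV (FSS13025 or MR766), and splenic CD8+ T cells were isolated 7 days later. 2×10^5 cells were stimulated 20 h with 1×10^5 LPS-blasts loaded with 10 μg peptide, in triplicate. Output is SFC/10^6 CD8+ T cells; positive if net >20 and stimulation index >2.0.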

[3] = system: CD8+ T cells; test: IFNγ ICS, DENV2 S221-infected Ifnar-/- HLA-B*0702 transgenic mice; conditions: HLA-B*0702 mice; for % IFNγ+ CD8+ T cells, S221: 7 days after DENV2 S221, ICS; for ZIKV/DENV cross-reactivity in DENV2-infected mice (IFNγ ELISPOT and IFNγ ICS): DENV2 S221, 7 days
Procedure: as §1
Spleens were harvested from virus-infected, mock-immunized, or peptide-immunized mice. 1×10^6 splenocytes were plated in each well of 96-well U-bottom plates and stimulated with individual peptide (10 μg crude peptide or 1 μg pure peptide per well) for 6 hours. Five hours before the end of incubation, Brefeldin A (GolgiPlug; BD Biosciences) and PE-conjugated anti CD107a mAb (clone 1D4B, eBioscience) were added to the cells. Splenocytes stimulated with PMA-ionomycin were used as the positive control, while cells without any stimulation were the negative control. […] Samples were run using an LSR™ II (BD Biosciences) and analyzed using FLOWJO™ software X 10.0.7 (Tree Star, Ashland, Oreg.).
(§2) The following results are with respect to FIG. 14A and FIG. 14B, where Ifnar^−/− HLA-B*0702 transgenic mice were infected R.O. with 2×10^4 FFU of DENV2 strain S221 for 7 days. CD8^+ T cells isolated from splenocytes were stimulated with each of the 37 ZIKV epitopes identified via IFNγELISPOT to perform (FIG. 14A) IFNγELISPOT and (FIG. 14B) ICS assay. Data represent the average of two independent IFNγELISPOT experiments and two independent ICS experiments (n=7 mice) and are expressed as mean±SEM. Dotted line corresponds to the cutoff value. *, P<0.05.

[4] = system: CD8+ T cells; test: IFNγ ELISPOT, DENV2 S221-infected Ifnar-/- HLA-B*0702 transgenic mice; conditions: HLA-B*0702 mice, 7 days after 2×10^4 FFU DENV2 S221
Procedure: as §1
CD8^+ T cells were isolated from splenocytes using magnetic bead positive selection (Miltenyi Biotec, Germany) 7 days after virus infection. 2×10^5 CD8^+ T cells were stimulated with 1×10^5 LPS-blasts loaded with 10 μg of individual peptide in 96-well flat-bottom plates (IMMOBILON™-P; Millipore, Bedford, Mass.) that were coated with anti-IFNγ mAb (clone AN18; Mabtech, Stockholm, Sweden) in triplicate. Concanavalin A (ConA) was used as positive control. After 20 hours of incubation, biotinylated anti-mouse IFNγ mAb (R4-6A2; Mabtech), followed by ABC peroxidase (Vector Laboratories, Burlingame, Calif., USA) and then 3-amino-9-ethylcarbazole (Sigma-Aldrich, St. Louis, Mo., USA) were added into the wells. […] A peptide inducing a magnitude of >500 SFCs/10^6 CD8^+ T cells was considered as an immunodominant peptide.
as §2

Row | Sequence | IFNγ and TNFα double-positive epitope-specific CD8+ T cells [1] | percentage of epitope-specific IFNγ-producing CD8+ T cells [1] [%] | SFC/10^6 CD8+ T cells, FSS13025 [2] [SFC/10^6 CD8+ T cells] | SFC/10^6 CD8+ T cells, MR766 [2] [SFC/10^6 CD8+ T cells] | immunodominance in IFNγ ELISPOT [2] | % IFNγ+ CD8+ T cells, S221 [3] | ZIKV/DENV cross-reactivity in DENV2-infected mice (IFNγ ELISPOT and IFNγ ICS) [3] | SFC/10^6 CD8+ T cells, S221 [4] [SFC/10^6 CD8+ T cells]
1 | KPRWMDARV [FSS/MR-NS3574-582] | double-positive with expression of both IFNγ and TNFα | 2.61±1.19 | 969 | 1095 | immunodominant | (0.63%) | positive in both IFNγ ELISPOT and IFNγICS assays | 350
2 | RPALLVSFIF [FSS/MR-NS2A75-84] | double-positive with expression of both IFNγ and TNFα | 0.44±0.24 | 713 | 582 | immunodominant | (0.58%) | positive in both IFNγ ELISPOT and IFNγICS assays | 88
